Values of other authors, collected in article PMC11865562 (Scientific Reports, 2025).

Tested on: P-gp

P-gp substrate (reported): P-gp substrate
Compound: CNC(=O)c1ccc(-c2cnc3ncc(Cc4ccc5ncccc5c4)n3n2)cc1F [Capmatinib, capmatinib]
